From US20250092065A1, “2-(INDAZOL-5-YL)-6-(PIPERIDIN-4-YL)-1,7-NAPHTHYRIDINE DERIVATIVES AND RELATED COMPOUNDS AS MODULATORS FOR SPLICING NUCLEIC ACIDS AND FOR THE TREATMENT OF PROLIFERATIVE DISEASES” (REMIX THERAPEUTICS INC., priority 2022, published 2025)
Where two headings read alike, the source gives them in different places.

Legend:
[1] = test system: K562 cells; assay: Cell Titer Glo 2.0 cell viability (toxicity) assay, K562; settings: 500 cells/well, 72 hours
[2] = test system: MYB mRNA; assay: RT-qPCR splicing assay, MYB mRNA canonical (CJ) and alternative (AJ) junction; format: cell-based, human; settings: Homo sapiens; for AC50: MYB alternative junction mRNA increase, read-out: MYB AJ (increase in alternative junction mRNA, AC50)
Summary of the method: (§1)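 A673 or K562 cells treated 24 h at 37 °C with an 11-point 3-fold dilution series (top 10 uM, DMSO ≤0.25%). Lysates went directly to one-step RT-qPCR quantifying canonical (CJ) and alternative-exon (AJ) junctions, normalized to GAPDH, GUSB or PPIA. Values from ΔΔCt versus DMSO, RQ = 2^(−ΔΔCt), expressed as percentage response.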

[3] = test system: HTT mRNA; assay: RT-qPCR splicing assay, HTT mRNA canonical (CJ) and alternative (AJ) junction; format: cell-based, human; settings: Homo sapiens; for AC50: HTT alternative junction mRNA increase, read-out: HTT AJ (increase in alternative junction mRNA, AC50)
Summary of the method: as §1

[4] = test system: Target C; assay: RT-qPCR canonical junction panel assay, Target C mRNA; format: cell-based; settings: Table 4, read-out: Target C IC50 (decrease in CJ mRNA levels)
Experimental: Compounds described herein were used to modulate RNA transcript abundance in cells. The expression of a target mRNA was measured by detecting the formation of an exon-exon junction in the canonical transcript (CJ). A compound mediated exon-inclusion event was detected by observing an increase in formation of a new junction with an alternative exon (AJ). Real-time qPCR assays were used to detect these splicing switches and interrogate the potency of various compounds towards different target genes. A high-throughput real time quantitative PCR (RT-qPCR) assay was developed to measure these two isoforms of the mRNA (CJ and AJ) for exemplary genes, such as HTT, SMN2, and MYB, together with a control housekeeping gene, GAPDH or GUSB or PPIA, used for normalization. Briefly, the A673 or K562 cell line was treated with various compounds described herein (e.g., compounds of Formula (I)). After treatment, the levels of the HTT, MYB, or SMN2 mRNA targets were determined from each sample of cell lysate by cDNA synthesis followed by qPCR.
The data analysis was performed by first determining the ΔCt vs the housekeeper gene. This ΔCt was then normalized against the DMSO control (ΔΔCt) and converted to RQ (relative quantification) using the 2^(−ΔΔCt) equation. The RQ were then converted to a percentage response by arbitrarily setting an assay window of 3.5 and 4.0 ΔCt for HTT-CJ and MYB-CJ respectively and an assay window of 9 and 3 ΔCt for HTT-AJ and MYB-AJ in 96 well format (50,000 K562 cells/well and 15,000 A673 cells per well) and an assay window of 3 and 4 ΔCt for HTT-CJ and MYB-CJ respectively and an assay window of 5 and 3 ΔCt for HTT-AJ and MYB-AJ respectively in 384 well format (8,000 K562 cells/well example). […] The percentage response was then fitted to the 4 parametric logistic equation to evaluate the concentration dependence of compound treatment. The increase in AJ mRNA is reported as AC50 (compound concentration having 50% response in AJ increase) while the decrease in CJ mRNA levels is reported as IC50 (compound concentration having […] in CJ decrease).
Additional studies were carried out for a larger panel of genes using the protocol provided above. The junction between flanking upstream and downstream exons was used to design canonical junction Qpcr assays. At least one of the forward primer, reverse primer or the CY5-labeled 5′ nuclease probe (with 3′ quencher such as ZEN/Iowa Black FQ) was designed to overlap with the exon junction to capture the CJ Mrna transcript. BLAST was used to confirm the specificity of the probeset and parameters suCH As melting temperature, GC content, amplicon size, and primer dimer formation are considered during their design. Data for the decrease in CJ Mrna levels for four exemplary genes (HTT, SMN2, MYB, and Target C) analyzed in this panel are reported as IC50 (compound concentration having […] in CJ decrease).

[5] = test system: SMN2 mRNA; assay: RT-qPCR splicing assay, SMN2 mRNA; format: cell-based, human; settings: Homo sapiens, canonical junction qPCR panel, Table 4; read-out: SMN2 IC50 (decrease in CJ mRNA levels)
Summary of the method: as §1

[6] = RT-qPCR, MYB canonical junction mRNA decrease, read-out: MYB CJ (decrease in canonical junction mRNA, IC50)
[7] = canonical junction qPCR panel, Table 4, read-out: MYB IC50 (decrease in CJ mRNA levels)
[8] = RT-qPCR, HTT canonical junction mRNA decrease, read-out: HTT CJ (decrease in canonical junction mRNA, IC50)
[9] = canonical junction qPCR panel, Table 4, read-out: HTT IC50 (decrease in CJ mRNA levels)

| SMILES | Effect of Exemplary Compounds on Cell Viability, K562 [1] | AC50 ([2]; RT-qPCR) | IC50 [2, 6] | IC50 [2, 7] | AC50 ([3]; RT-qPCR) | IC50 [3, 8] | IC50 [3, 9] | IC50 [4] | IC50 [5] |
| --- | --- | --- | --- | --- | --- | --- | --- | --- | --- |
| C[C@H]1CN(c2ccc3nc(-c4cc5cn(C)nc5cc4O)ncc3c2)CC2(CC2)N1 (single isomer, unassigned) [Compound 812] | B (B represents 100-1000 nM) | 0.1 to 1 µM | 0.1 to 1 µM | 0.1 to 1 µM | 1 to 10 µM | 1 to 10 µM | 1 to 10 µM | 1 to 10 µM | < 0.1 µM |
| C[C@@H]1CN(c2ccc3nc(-c4cc5cn(C)nc5cc4O)ncc3c2)CC2(CC2)N1 (single isomer, unassigned) [Compound 813] | B (B represents 100-1000 nM) | 0.1 to 1 µM | 0.1 to 1 µM | 0.1 to 1 µM | > 10 µM | > 10 µM | > 10 µM | > 10 µM | < 0.1 µM |
| Cc1cn2cc(-c3ncc4cc(N5C[C@H](C)NC6(CC6)C5)ccc4n3)cc(F)c2n1 (single isomer, unassigned) [Compound 814] | B (B represents 100-1000 nM) | 0.1 to 1 µM | 0.1 to 1 µM | 0.1 to 1 µM | 1 to 10 µM | 0.1 to 1 µM | 0.1 to 1 µM | > 10 µM | < 0.1 µM |
| Cc1cn2cc(-c3ncc4cc(N5C[C@@H](C)NC6(CC6)C5)ccc4n3)cc(F)c2n1 (single isomer, unassigned) [Compound 815] | B (B represents 100-1000 nM) | 0.1 to 1 µM | 0.1 to 1 µM | 0.1 to 1 µM | 1 to 10 µM | 1 to 10 µM | 1 to 10 µM | > 10 µM | < 0.1 µM |
| Cc1cn2cc(-c3ncc4cc(N5C[C@H](C)N[C@@H](C)C5)ccc4n3)cc(Cl)c2n1 (single isomer, unassigned) [Compound 818] | A (A represents <100 nM) | < 0.1 µM | < 0.1 µM | < 0.1 µM | 1 to 10 µM | 0.1 to 1 µM | 0.1 to 1 µM | 1 to 10 µM | < 0.1 µM |
| C[C@H]1CN(c2ccc3nc(-c4cc(F)c5nncn5c4)ncc3c2)C[C@H](C)N1 (single isomer, unassigned) [Compound 820] | C (C represents 1000-9999 nM) | 1 to 10 µM | 1 to 10 µM | 1 to 10 µM | > 10 µM | > 10 µM | > 10 µM | > 10 µM | 0.1 to 1 µM |
| Cc1nc2c(F)cc(-c3ncc4cc(N5C[C@H](C)N[C@@H](C)C5)ccc4n3)cn2c1F (single isomer, unassigned) [Compound 822] | B (B represents 100-1000 nM) | 1 to 10 µM | 0.1 to 1 µM | 0.1 to 1 µM | > 10 µM | 1 to 10 µM | 1 to 10 µM | 1 to 10 µM | 0.1 to 1 µM |
| C[C@@H]1CN(c2ccc3nc(-c4cc(F)c5nn(C)cc5c4)ncc3c2)C[C@H](C)N1 [Compound 780, 6-[(3R,5S)-3,5-dimethylpiperazin-1-yl]-2-(7-fluoro-2-methylindazol-5-yl)quinazoline] | B (B represents 100-1000 nM) | 0.1 to 1 µM | 0.1 to 1 µM | 0.1 to 1 µM | 1 to 10 µM | 1 to 10 µM | 1 to 10 µM | 1 to 10 µM | < 0.1 µM |
| Cc1nc(-c2cc(F)c3nn(C)cc3c2)nc2ccc(N3C[C@@H](C)N[C@@H](C)C3)cc12 [Compound 781, 6-[(3R,5S)-3,5-dimethylpiperazin-1-yl]-2-(7-fluoro-2-methylindazol-5-yl)-4-methylquinazoline] | C (C represents 1000-9999 nM) | 1 to 10 µM | 1 to 10 µM | 1 to 10 µM | > 10 µM | > 10 µM | > 10 µM | > 10 µM | 0.1 to 1 µM |
| Cc1nc(-c2cc3cn(C)nc3cc2O)nc2ccc(N3C[C@@H](C)N[C@@H](C)C3)cc12 [Compound 782, 5-(6-((3S,5R)-3,5-dimethylpiperazin-1-yl)-4-methylquinazolin-2-yl)-2-methyl-2H-indazol-6-ol 2,2,2-trifluoroacetate] | B (B represents 100-1000 nM) | 0.1 to 1 µM | 0.1 to 1 µM | 0.1 to 1 µM | > 10 µM | 1 to 10 µM | 1 to 10 µM | > 10 µM | < 0.1 µM |
| Cc1nc(-c2cc3cn(C)nc3c(C)c2O)nc2ccc(N3C[C@@H](C)N[C@@H](C)C3)cc12 [Compound 783, 5-{6-[(3R,5S)-3,5-dimethylpiperazin-1-yl]-4-methylquinazolin-2-yl}-2,7-dimethylindazol-6-ol] | B (B represents 100-1000 nM) | 0.1 to 1 µM | 0.1 to 1 µM | 0.1 to 1 µM | > 10 µM | > 10 µM | > 10 µM | > 10 µM | < 0.1 µM |
| Cc1c(O)c(-c2nc(C(N)=O)c3cc(N4C[C@@H](C)N[C@@H](C)C4)ccc3n2)cc2cn(C)nc12 [Compound 784, 6-[(3R,5S)-3,5-dimethylpiperazin-1-yl]-2-(6-hydroxy-2,7-dimethylindazol-5-yl)quinazoline-4-carboxamide] | A (A represents <100 nM) | < 0.1 µM | < 0.1 µM | < 0.1 µM | > 10 µM | 1 to 10 µM | 1 to 10 µM | > 10 µM | < 0.1 µM |
